Measured values from ChEMBL document CHEMBL3507680, “University of Dundee, Gates Library screen for HepG2 cell viability”.

Test: Human HepG2 cell viability assay in 384 well format
Assay type: toxicity, cell-based
Set-up: dose 125 nL, time 70.5 hour; concentration not given beside the values
Settings: HepG2 cells, read-out: Inhibition

| Structure (SMILES) | cytotoxicity at 70.5 h [%] |
| --- | --- |
| O=C(NCCSCc1ccc(Br)s1)C1CCCN(c2cnccn2)C1 (configuration not stated) | 10.7 |
| CC(NCc1cc(O)c2cccc(F)c2n1)c1ccccc1O (configuration not stated) | -10.4 |
| Cn1c(N2CCOCC2)nc2cc(C(=O)N3CCC(O)(CO)C3)ccc21 (configuration not stated) | -2.61 |
| CC(SCCC(=O)NC(N)=O)c1cccc(F)c1 (configuration not stated) | 15.9 |
| CCCN(CCOC)C(=O)c1cc(Cn2c(C)nc3ccccc32)[nH]n1 | -2.8 |
| CN1CCN(c2ncccc2CNc2ncccc2C#N)CC1 | -10.7 |
| c1cncc(C[C@H]2[C@H](N3CCOCC3)CCN2Cc2nccs2)c1 | -3.76 |
| COc1ccccc1CNc1c(N2CCN(C(C)=O)CC2)c(=O)c1=O | -10.2 |
| COc1ncnc(N(C)C)c1NC(=O)Cc1c[nH]c2ccc(F)cc12 | -7.3 |
| Cc1n[nH]c(C)c1CC(=O)NCc1ccccc1Cl | 1.58 |
| O=c1c2cnc(N3CCCC3)nc2ccn1-c1cccc(F)c1 | -0.217 |
| O=S(=O)(Cc1ccc(F)c(Cl)c1)NCCOc1cccnc1 | 3.53 |
| CN(C)C(=O)N1CC(=O)NCC12CCN(C(=O)c1ccco1)C2 (configuration not stated) | -7.28 |
| Cn1nnc(NCc2ccc(OCc3ccc(Cl)cc3)cc2)n1 | -4.01 |
| COc1ncccc1C(=O)N1CC(c2nc(-c3ccccn3)no2)C1 | 19.5 |
| CN(CCNC(=O)c1scnc1Cl)c1ccccc1 | 2.36 |
| CCOC(=O)C1CCN(Cc2csc(C(C)(C)C)n2)CC1 | -2.2 |
| CCCN(CC)C(=O)c1nc2c(n1C)CCN(Cc1ccccc1)C2 | -4.66 |
| N#Cc1ncn(CCS(=O)(=O)c2ccc(Br)cc2)n1 | 4.43 |

| Structure (SMILES) | cytotoxicity at 70.5 h [%] |
| --- | --- |
| COC(=O)CN(C(=O)c1ccoc1)c1cccc(F)c1 | -8.55 |
| Cc1n[nH]c(C)c1CCCNCc1cn(CCC(N)=O)c2ccccc12 | -3.31 |
| CS(=O)(=O)NC[C@]12COC[C@H]1CN(CCc1ccccc1)C2 | -8.06 |
| CSc1ccc(C(C)NC(=O)c2cc(C)on2)cc1 (configuration not stated) | -4.63 |
| Cn1cnnc1C1CCN(C(=O)CCOc2ccc(Cl)cc2)CC1 | 19.2 |
| CN(C)CCNC(=O)Cc1cccc(I)c1 | 18.8 |
| CCN(CC(C)C#N)C(=O)CNc1cc(Cl)ccc1C(N)=O (configuration not stated) | 3.41 |
| CS(=O)(=O)N1CCN(c2ccc3ccc(C(=O)NC4CC4)cn23)CC1 | 0.444 |
| Cc1cc(N2CCCN(C(=O)Cc3ccc(O)c(Cl)c3)CC2)ccn1 | -4.07 |
| Cc1cncc(C(=O)N[C@@H]2CC[C@@H](N3CCOCC3)[C@@H]2O)c1 | -8.5 |
| Cn1cccc1C(=O)N1CCO[C@H]2[C@H](OCc3cccnc3)CC[C@@H]21 | -7.88 |
| O=C(c1ccc(N2CCCC2)nn1)N1CCCC(n2cccn2)C1 (configuration not stated) | -1.11 |
| CCN(C)C[C@@H]1CN(C(=O)c2cc(-c3ccc(F)cc3)n[nH]2)C[C@@H]1CO | -4.68 |
| Nc1nccnc1C(=O)NCCCNc1ccc(C(F)(F)F)cn1 | 2.59 |
| Cc1ccc(C)c(NCc2nc3n(n2)CCCCC3)c1 | -15.6 |
| O=C1CCC2(CCCN(c3ncc(Cl)cc3F)C2)CN1CC1CC1 (configuration not stated) | -1.6 |
| COCCC1(C(=O)O)CCCN(C(=O)c2cc(Cl)ccc2F)C1 (configuration not stated) | -5.3 |
| Cc1nc(C2CCCN(C(=O)c3cccc4c3OCCO4)C2)no1 (configuration not stated) | -1.54 |
| O=C(NCc1nc(C2CC2)no1)N1CCOC(c2ccccc2)C1 (configuration not stated) | -13.1 |

| Structure (SMILES) | cytotoxicity at 70.5 h [%] |
| --- | --- |
| NCCc1cccc(CN2CCN(c3cccc(Cl)c3)C(=O)C2)c1 | -7.22 |
| Cc1noc(C)c1CC(=O)NCc1ccnc(OCC(F)(F)F)c1 | -7.45 |
| CC(C)N1CCOCC2(CCCN(C(=O)c3cn(C)cn3)C2)C1 (configuration not stated) | 0.0869 |
| Cc1ccc(OCC(=O)NS(=O)(=O)Cc2ccccc2)cc1 | -5.22 |
| CSc1ccc(CN(C)Cc2noc(C(C)(C)C)n2)cc1 | -6.11 |
| COc1ccc(C(CC(=O)NCc2n[nH]c(N)n2)c2ccccc2)cc1 (configuration not stated) | -4.65 |
| Cc1cccc(CNCc2ccc(NC(=O)NC(C)C)cc2)c1 | 2.57 |
| COc1cccc(CN2CCN(CC(C)C)C(=O)C2C)c1O (configuration not stated) | 0.611 |
| CC(Nc1nc(-c2ccccc2)nc2c1CCNCC2)c1nccs1 (configuration not stated) | 2.31 |
| Cc1cc(C)nc(CCNC(=O)C(c2ccc(F)cc2)N(C)C)n1 (configuration not stated) | 30.5 |
| CC(C)C1CN(C(=O)c2cc(=O)[nH]c(=O)[nH]2)CCC(=O)N1CC1CC1 (configuration not stated) | -2.3 |
| CN(CCN1CCCC1=O)CC(c1cccs1)N1CCOCC1 (configuration not stated) | -11.7 |
| CC1CCN(S(=O)(=O)N2CCCC(c3cccc(C(=O)O)c3)C2)CC1 (configuration not stated) | -12.1 |
| Cc1ccc(CN2C[C@@H]3CN(c4ncccn4)C[C@@H]3C2)cc1 | -4.24 |
| CC(C)C1C(=O)NCCN1C(=O)CCCc1nc(C(C)(C)C)no1 (configuration not stated) | -3.75 |
| Cc1cc(NC(=O)NCc2ccc(S(=O)(=O)N3CCCC3)s2)no1 | -7.64 |
| CCn1nc2c(cc1=O)CN(CC(=O)Nc1cc(C)no1)CC2 | -0.888 |
| COC(C)(CNS(=O)(=O)c1cn(C)cn1)c1ccccc1F (configuration not stated) | 9.94 |
| Cn1cc(Br)c(=O)c(NS(=O)(=O)c2cc(F)ccc2Cl)c1 | 6.1 |
